Laboratory results taken from patent publication EP4464309A1, “ANTIDANDRUFF COMPOSITION COMPRISING 1-ACETOXYCHAVICOL ACETATE” (Analyticon Discovery GmbH, priority 2023, dated 2024).
Where two headings read alike, the source gives them in different places.

Assays:
[1] = Chemical stability of 2% solutions of 1-acetoxychavicol acetate on storage, followed by HPLC; type: physicochemical
Method: 1-acetoxychavicol acetate was dissolved as a 2% solution in water ethanol (70:30), an aqueous shampoo formulation, and in various vegetable oils. […] Table 1 Assessment of stability of 2% solutions of 1-acetoxychavicol acetate in wt.-percent over time

[2] = as above; type: physicochemical; settings: solutions of up to 5 wt.-percent in vegetable oil, e.g. sunflower or rape seed oil; even at higher temperatures
[3] = cited from earlier work

C=CC(OC(C)=O)c1ccc(OC(C)=O)cc1 (centres unmarked) [1-acetoxychavicol acetate]
degradation ([1]; 2% solution in the shampoo formulation): fast degradation
degradation ([1]; 2% solution in vegetable oils, after 20 weeks of storage): no relevant degradation
degradation ([1]; 2% solution in water (water ethanol 70:30)): fast degradation
stability of 2% solutions of 1-acetoxychavicol acetate ([1]; Aq. Ethanol, storage time 0 w): 100 wt.-percent
stability of 2% solutions of 1-acetoxychavicol acetate ([1]; Aq. Ethanol, storage time 1 w): 80 wt.-percent
stability of 2% solutions of 1-acetoxychavicol acetate ([1]; Aq. Ethanol, storage time 2 w): 60 wt.-percent
stability of 2% solutions of 1-acetoxychavicol acetate ([1]; Aq. Ethanol, storage time 3 w): 50 wt.-percent
stability of 2% solutions of 1-acetoxychavicol acetate ([1]; Aq. Ethanol, storage time 4 w): 30 wt.-percent
stability of 2% solutions of 1-acetoxychavicol acetate ([1]; Aq. Ethanol, storage time 5 w): 20 wt.-percent
stability of 2% solutions of 1-acetoxychavicol acetate ([1]; Aq. Ethanol, storage time 6 w): 0 wt.-percent
stability of 2% solutions of 1-acetoxychavicol acetate ([1]; Aq. Ethanol, storage time 7 w): 0 wt.-percent
stability of 2% solutions of 1-acetoxychavicol acetate ([1]; Aq. Ethanol, storage time 8 w): 0 wt.-percent
stability of 2% solutions of 1-acetoxychavicol acetate ([1]; Aq. Ethanol, storage time 9 w): 0 wt.-percent
stability of 2% solutions of 1-acetoxychavicol acetate ([1]; Aq. Ethanol, storage time 10 w): 0 wt.-percent
stability of 2% solutions of 1-acetoxychavicol acetate ([1]; Aq. Ethanol, storage time 15 w): 0 wt.-percent
stability of 2% solutions of 1-acetoxychavicol acetate ([1]; Aq. Ethanol, storage time 20 w): 0 wt.-percent
stability of 2% solutions of 1-acetoxychavicol acetate ([1]; HO Rape seed oil, storage time 0 w): 100 wt.-percent
stability of 2% solutions of 1-acetoxychavicol acetate ([1]; HO Rape seed oil, storage time 1 w): 100 wt.-percent
stability of 2% solutions of 1-acetoxychavicol acetate ([1]; HO Rape seed oil, storage time 2 w): 100 wt.-percent
stability of 2% solutions of 1-acetoxychavicol acetate ([1]; HO Rape seed oil, storage time 3 w): 100 wt.-percent
stability of 2% solutions of 1-acetoxychavicol acetate ([1]; HO Rape seed oil, storage time 4 w): 100 wt.-percent
stability of 2% solutions of 1-acetoxychavicol acetate ([1]; HO Rape seed oil, storage time 5 w): 100 wt.-percent
stability of 2% solutions of 1-acetoxychavicol acetate ([1]; HO Rape seed oil, storage time 6 w): 100 wt.-percent
stability of 2% solutions of 1-acetoxychavicol acetate ([1]; HO Rape seed oil, storage time 7 w): 100 wt.-percent
stability of 2% solutions of 1-acetoxychavicol acetate ([1]; HO Rape seed oil, storage time 8 w): 100 wt.-percent
stability of 2% solutions of 1-acetoxychavicol acetate ([1]; HO Rape seed oil, storage time 9 w): 100 wt.-percent
stability of 2% solutions of 1-acetoxychavicol acetate ([1]; HO Rape seed oil, storage time 10 w): 100 wt.-percent
stability of 2% solutions of 1-acetoxychavicol acetate ([1]; HO Rape seed oil, storage time 15 w): 100 wt.-percent
stability of 2% solutions of 1-acetoxychavicol acetate ([1]; HO Rape seed oil, storage time 20 w): 100 wt.-percent
stability of 2% solutions of 1-acetoxychavicol acetate ([1]; HO Sunflower oil, storage time 0 w): 100 wt.-percent
stability of 2% solutions of 1-acetoxychavicol acetate ([1]; HO Sunflower oil, storage time 1 w): 100 wt.-percent
stability of 2% solutions of 1-acetoxychavicol acetate ([1]; HO Sunflower oil, storage time 2 w): 100 wt.-percent
stability of 2% solutions of 1-acetoxychavicol acetate ([1]; HO Sunflower oil, storage time 3 w): 100 wt.-percent
stability of 2% solutions of 1-acetoxychavicol acetate ([1]; HO Sunflower oil, storage time 4 w): 100 wt.-percent
stability of 2% solutions of 1-acetoxychavicol acetate ([1]; HO Sunflower oil, storage time 5 w): 100 wt.-percent
stability of 2% solutions of 1-acetoxychavicol acetate ([1]; HO Sunflower oil, storage time 6 w): 100 wt.-percent
stability of 2% solutions of 1-acetoxychavicol acetate ([1]; HO Sunflower oil, storage time 7 w): 100 wt.-percent
stability of 2% solutions of 1-acetoxychavicol acetate ([1]; HO Sunflower oil, storage time 8 w): 100 wt.-percent
stability of 2% solutions of 1-acetoxychavicol acetate ([1]; HO Sunflower oil, storage time 9 w): 100 wt.-percent
stability of 2% solutions of 1-acetoxychavicol acetate ([1]; HO Sunflower oil, storage time 10 w): 100 wt.-percent
stability of 2% solutions of 1-acetoxychavicol acetate ([1]; HO Sunflower oil, storage time 15 w): 100 wt.-percent
stability of 2% solutions of 1-acetoxychavicol acetate ([1]; HO Sunflower oil, storage time 20 w): 90 wt.-percent
stability of 2% solutions of 1-acetoxychavicol acetate ([1]; Olive oil, storage time 0 w): 100 wt.-percent
stability of 2% solutions of 1-acetoxychavicol acetate ([1]; Olive oil, storage time 1 w): 100 wt.-percent
stability of 2% solutions of 1-acetoxychavicol acetate ([1]; Olive oil, storage time 2 w): 100 wt.-percent
stability of 2% solutions of 1-acetoxychavicol acetate ([1]; Olive oil, storage time 3 w): 100 wt.-percent
stability of 2% solutions of 1-acetoxychavicol acetate ([1]; Olive oil, storage time 4 w): 100 wt.-percent
stability of 2% solutions of 1-acetoxychavicol acetate ([1]; Olive oil, storage time 5 w): 100 wt.-percent
stability of 2% solutions of 1-acetoxychavicol acetate ([1]; Olive oil, storage time 6 w): 100 wt.-percent
stability of 2% solutions of 1-acetoxychavicol acetate ([1]; Olive oil, storage time 7 w): 95 wt.-percent
stability of 2% solutions of 1-acetoxychavicol acetate ([1]; Olive oil, storage time 8 w): 95 wt.-percent
stability of 2% solutions of 1-acetoxychavicol acetate ([1]; Olive oil, storage time 9 w): 95 wt.-percent
stability of 2% solutions of 1-acetoxychavicol acetate ([1]; Olive oil, storage time 10 w): 90 wt.-percent
stability of 2% solutions of 1-acetoxychavicol acetate ([1]; Olive oil, storage time 15 w): 90 wt.-percent
stability of 2% solutions of 1-acetoxychavicol acetate ([1]; Olive oil, storage time 20 w): 85 wt.-percent
stability of 2% solutions of 1-acetoxychavicol acetate ([1]; Peanut oil, storage time 0 w): 100 wt.-percent
stability of 2% solutions of 1-acetoxychavicol acetate ([1]; Peanut oil, storage time 1 w): 100 wt.-percent
stability of 2% solutions of 1-acetoxychavicol acetate ([1]; Peanut oil, storage time 2 w): 100 wt.-percent
stability of 2% solutions of 1-acetoxychavicol acetate ([1]; Peanut oil, storage time 3 w): 100 wt.-percent
stability of 2% solutions of 1-acetoxychavicol acetate ([1]; Peanut oil, storage time 4 w): 100 wt.-percent
stability of 2% solutions of 1-acetoxychavicol acetate ([1]; Peanut oil, storage time 5 w): 100 wt.-percent
stability of 2% solutions of 1-acetoxychavicol acetate ([1]; Peanut oil, storage time 6 w): 100 wt.-percent
stability of 2% solutions of 1-acetoxychavicol acetate ([1]; Peanut oil, storage time 7 w): 95 wt.-percent
stability of 2% solutions of 1-acetoxychavicol acetate ([1]; Peanut oil, storage time 8 w): 95 wt.-percent
stability of 2% solutions of 1-acetoxychavicol acetate ([1]; Peanut oil, storage time 9 w): 95 wt.-percent
stability of 2% solutions of 1-acetoxychavicol acetate ([1]; Peanut oil, storage time 10 w): 90 wt.-percent
stability of 2% solutions of 1-acetoxychavicol acetate ([1]; Peanut oil, storage time 15 w): 90 wt.-percent
stability of 2% solutions of 1-acetoxychavicol acetate ([1]; Peanut oil, storage time 20 w): 85 wt.-percent
stability of 2% solutions of 1-acetoxychavicol acetate ([1]; Sesame oil, storage time 0 w): 100 wt.-percent
stability of 2% solutions of 1-acetoxychavicol acetate ([1]; Sesame oil, storage time 1 w): 100 wt.-percent
stability of 2% solutions of 1-acetoxychavicol acetate ([1]; Sesame oil, storage time 2 w): 100 wt.-percent
stability of 2% solutions of 1-acetoxychavicol acetate ([1]; Sesame oil, storage time 3 w): 100 wt.-percent
stability of 2% solutions of 1-acetoxychavicol acetate ([1]; Sesame oil, storage time 4 w): 100 wt.-percent
stability of 2% solutions of 1-acetoxychavicol acetate ([1]; Sesame oil, storage time 5 w): 100 wt.-percent
stability of 2% solutions of 1-acetoxychavicol acetate ([1]; Sesame oil, storage time 6 w): 100 wt.-percent
stability of 2% solutions of 1-acetoxychavicol acetate ([1]; Sesame oil, storage time 7 w): 95 wt.-percent
stability of 2% solutions of 1-acetoxychavicol acetate ([1]; Sesame oil, storage time 8 w): 95 wt.-percent
stability of 2% solutions of 1-acetoxychavicol acetate ([1]; Sesame oil, storage time 9 w): 95 wt.-percent
stability of 2% solutions of 1-acetoxychavicol acetate ([1]; Sesame oil, storage time 10 w): 90 wt.-percent
stability of 2% solutions of 1-acetoxychavicol acetate ([1]; Sesame oil, storage time 15 w): 90 wt.-percent
stability of 2% solutions of 1-acetoxychavicol acetate ([1]; Sesame oil, storage time 20 w): 85 wt.-percent
stability of 2% solutions of 1-acetoxychavicol acetate ([1]; Shampoo, storage time 0 w): 100 wt.-percent
stability of 2% solutions of 1-acetoxychavicol acetate ([1]; Shampoo, storage time 1 w): 80 wt.-percent
stability of 2% solutions of 1-acetoxychavicol acetate ([1]; Shampoo, storage time 2 w): 60 wt.-percent
stability of 2% solutions of 1-acetoxychavicol acetate ([1]; Shampoo, storage time 3 w): 55 wt.-percent
stability of 2% solutions of 1-acetoxychavicol acetate ([1]; Shampoo, storage time 4 w): 50 wt.-percent
stability of 2% solutions of 1-acetoxychavicol acetate ([1]; Shampoo, storage time 5 w): 40 wt.-percent
stability of 2% solutions of 1-acetoxychavicol acetate ([1]; Shampoo, storage time 6 w): 35 wt.-percent
stability of 2% solutions of 1-acetoxychavicol acetate ([1]; Shampoo, storage time 7 w): 30 wt.-percent
stability of 2% solutions of 1-acetoxychavicol acetate ([1]; Shampoo, storage time 8 w): 25 wt.-percent
stability of 2% solutions of 1-acetoxychavicol acetate ([1]; Shampoo, storage time 9 w): 20 wt.-percent
stability of 2% solutions of 1-acetoxychavicol acetate ([1]; Shampoo, storage time 10 w): 10 wt.-percent
stability of 2% solutions of 1-acetoxychavicol acetate ([1]; Shampoo, storage time 15 w): 0 wt.-percent
stability of 2% solutions of 1-acetoxychavicol acetate ([1]; Shampoo, storage time 20 w): 0 wt.-percent
stability ([1]; solution in rapeseed oil): particularly stable
stability ([1]; solution in sunflower oil): particularly stable
stability [2]: remains stable over months
stability ([3]; in aqueous solution): instable
time stable ([3]; in vegetable oil, at up to 120°C): at least 1 h
stability ([3]; solution with 30-40% ethanol, neutral pH, room temperature): stable for several month
stability ([3]; under thermal treatment, e.g. distillation): instable
